# Values joined by “and” are separate entries in the source; they are usually repeats but may differ in a detail not shown here. Equal entries are not always repeated. Where two headings read alike, the source gives them in different places.
# Key:
# [1] = tested on: Hz formation in ABS P. falciparum 3D7 parasites; assay: Cellular heme fractionation assay; type: cell-based, Plasmodium falciparum; details: for %Hb / %Heme / %Hemozoin / Hb Fe (fg/troph) / Heme Fe (fg/troph) / Hemozoin Fe (fg/troph) / Total Fe (fg/troph): rep 1-4 and Mean
# Protocol: A heme fractionation assay was used to measure the inhibition of Hz formation in cultured ABS P. falciparum 3D7 parasites as previously described. […] Late trophozoites were harvested after 32 hours of incubation by lysing RBCs with 0.05% saponin followed by multiple washes with 1 × PBS (pH 7.5) to remove any residual traces of hemoglobin. The parasite pellet was resuspended in PBS and the total number of trophozoites isolated was quantified using flow cytometry. Contents of the trophozoite pellet were released by hypotonic lysis and sonication. After centrifugation, treatments with HEPES buffer (pH 7.4), sodium dodecyl sulfate, pyridine, and NaOH, allowed us to separate the fractions corresponding to the different heme species of interest. A microplate reader was employed to measure the UV-visible spectrum of each heme fraction as a Fe(III)heme-pyridine complex. Fractions of undigested hemoglobin, “free” heme, and Hz were quantified using a heme standard curve based on the mass of each heme-Fe species per mature trophozoite (fg/cell), obtained by dividing the total amount of each heme species by the corresponding number of parasites in that fraction as determined by flow cytometry. Statistical comparisons and analyses for trends employed Students’ t-tests (GraphPad Prism version 9).
# [2] = MTT cytotoxicity assay, 72 h; type: cell-based, Human; details: human, MTT, 72 h, N = 3
# Protocol: (§1) Human hepatoma (HepG2) and fibroblast-like monkey kidney cells (COS-7) were cultured in Dulbecco’s Modified Eagle Medium supplemented with 10% heat-inactivated fetal bovine serum and gentamycin (40 mg/L) at 37°C in a 5% CO2 atmosphere. Cytotoxicity of test compounds was measured by metabolic reduction of mitochondrial enzymes using the MTT assay (3-[4,5-dimethyl-thiazol-2-yl]-2,5-diphenyltetrazolium chloride). Cells were seeded at 10^5 cells/well in 96-well plates and incubated for 72 hours in the presence of a 2-fold 12-point serial dilution of drugs along with drug-free controls. After adding 15 μL of MTT (5 mg/mL) to the wells, plates were centrifuged at 317g for 5 minutes and the pellet was resuspended in isopropanol. Absorbance was measured at 570 nm (CLARIOStar, Labtech BMG). Cell viability was determined by formazan production, and was expressed as a percentage of untreated control wells.
# HepG2 cells = assay: MTT cytotoxicity assay, 72 h; type: cell-based, Human
# Protocol: as §1
# [3] = MTT cytotoxicity assay, 72 h; type: cell-based, monkey; details: monkey, MTT, 72 h, N = 3
# Protocol: as §1
# COS-7 cells = assay: MTT cytotoxicity assay, 72 h; type: cell-based, monkey
# Protocol: as §1
# [4] = tested on: P. falciparum 3D7 ABS parasites; assay: ABS parasite survival assay, 72 h, flow cytometry; type: cell-based; details: Plasmodium falciparum, 3D7, ABS parasites, N = 3; read-out: IC50 3D7
# Protocol: (§2) P. falciparum ABS parasites were cultured at 3% hematocrit in human O^+ RBCs in RPMI-1640 media supplemented with 25 mM HEPES, 50 mg/L hypoxanthine, 2 mM L-glutamine, 0.21% sodium bicarbonate, 0.5% (w/v) AlbuMAXII (Invitrogen) and 10 μg/mL gentamycin. Culture flasks were kept in modular incubator chambers (Billups-Rothenberg) in a 5% O2, 5% CO2, and 90% N2 atmosphere at 37°C. Synchronized ring-stage parasites were obtained by two consecutive rounds of treatment with 5% D-sorbitol in 48-hour intervals. […] This was done by exposing cultures at 1% hematocrit and 0.3% parasitemia in 96-well plates in the presence of drugs in a two-fold 10 or 12-point serial dilution in duplicate along with drug-free controls. After a 72-hour incubation, parasite survival was assessed by flow cytometry on an iQue flow cytometer (Sartorius) using SYBR Green and MitoTracker Deep Red FM (Life Technologies) as nuclear stain and vital dye, respectively. Parasite survival was determined as a percentage relative to drug-free control. IC50 values were interpolated from log concentration versus response curves in Prism 9 (GraphPad Prism Software Inc.).
# [5] = tested on: P. falciparum Dd2 ABS parasites; assay: ABS parasite survival assay, 72 h, flow cytometry; type: cell-based; details: Plasmodium falciparum, DD2, ABS parasites, N = 3; read-out: IC50 Dd2
# Protocol: as §2
# [6] = tested on: P. berghei PbGFP-Luccon liver stage; assay: In vitro inhibition of liver stage infection of Huh-7 cells, bioluminescence; type: cell-based, Plasmodium berghei; details: DMSO = 100
# Protocol: (§3) In vitro inhibition of Plasmodium liver stage infection was assessed using bioluminescence data from Huh-7 cells infected with a firefly-luciferase-expressing P. berghei line, PbGFP-Luccon, in the presence of various compound concentrations. […] One day before drug treatment and infection, 10^4 Huh-7 cells/well were seeded in 96-well plates. The medium was then replaced by an infection medium (culture medium supplemented with 50 μg/mL gentamycin and 0.8 μg/mL amphotericin B) containing desired concentrations of test compounds. Fresh sporozoites recovered from salivary glands of infected female Anopheles stephensi mosquitoes were added to seeded Huh-7 cells at a 1:1 proportion, followed by centrifugation at 1700g for 5 minutes and incubation for 46 hours at 37°C under 5% CO2. Compound toxicity against Huh-7 cells was assessed by measuring […] using the Alamar Blue assay (Invitrogen). IC50 values were calculated using nonlinear regression analysis (GraphPad Prism version 9).
# Huh-7 cells = assay: Host cell confluency, Alamar Blue; type: cell-based, human; details: DMSO = 100
# Protocol: as §3
# [7] = 0.5–3.0 × IC50 vs untreated control
smiles,measurement,setting,value
"C[C@H]1Cc2c([nH]c3cc(Cl)c(F)cc23)[C@@]2(N1)C(=O)Nc1ccc(Cl)cc12 [KAE609, cipargamin]",%Hb,[1]; 0.5x,3.6542% and 7.0007% and 6.1505% and 3.0130%
same,%Heme,[1]; 0.5x,5.3042% and 5.9396% and 6.0562% and 6.0905%
same,%Hemozoin,[1]; 0.5x,91.0416% and 87.0597% and 87.7934% and 90.8965%
same,Hb Fe (fg/troph),[1]; 0.5x,2.0363 fg/troph and 3.5589 fg/troph and 3.2475 fg/troph and 1.8499 fg/troph
same,Heme Fe (fg/troph),[1]; 0.5x,2.9557 fg/troph and 3.0195 fg/troph and 3.1977 fg/troph and 3.7394 fg/troph
same,Hemozoin Fe (fg/troph),[1]; 0.5x,50.7323 fg/troph and 44.2576 fg/troph and 46.3552 fg/troph and 55.8088 fg/troph
same,Total Fe (fg/troph),[1]; 0.5x,55.72 fg/troph and 50.84 fg/troph and 52.80 fg/troph and 61.40 fg/troph
same,effect on Hz levels,[1]; [7],did not affect Hz formation
same,effect on undigested Hb,[1]; [7],subtle yet significant increment in Hb levels observed under 2 and 2.5 × IC50
same,%Hb,[1]; 1x,5.1693% and 5.1920% and 5.0902% and 5.1212%
same,%Heme,[1]; 1x,5.7735% and 5.8398% and 5.6460% and 5.8813%
same,%Hemozoin,[1]; 1x,89.0573% and 88.9682% and 89.2638% and 88.9975%
same,Hb Fe (fg/troph),[1]; 1x,2.9437 fg/troph and 3.1428 fg/troph and 2.7576 fg/troph and 3.0371 fg/troph
same,Heme Fe (fg/troph),[1]; 1x,3.2877 fg/troph and 3.5349 fg/troph and 3.0588 fg/troph and 3.4878 fg/troph
same,Hemozoin Fe (fg/troph),[1]; 1x,50.7140 fg/troph and 53.8534 fg/troph and 48.3591 fg/troph and 52.7792 fg/troph
same,%Hb,[1]; 2x,6.5332% and 6.7594% and 6.3629% and 6.9166%
same,%Heme,[1]; 2x,5.4724% and 5.9940% and 4.2854% and 5.7076%
same,%Hemozoin,[1]; 2x,87.9944% and 87.2465% and 89.3517% and 87.3758%
same,Hb Fe (fg/troph),[1]; 2x,4.0073 fg/troph and 4.4606 fg/troph and 3.7570 fg/troph and 4.7143 fg/troph
same,Heme Fe (fg/troph),[1]; 2x,3.3567 fg/troph and 3.9555 fg/troph and 2.5303 fg/troph and 3.8902 fg/troph
same,Hemozoin Fe (fg/troph),[1]; 2x,53.9742 fg/troph and 57.5747 fg/troph and 52.7581 fg/troph and 59.5545 fg/troph
same,Total Fe (fg/troph),[1]; 2x,61.34 fg/troph and 65.99 fg/troph and 59.05 fg/troph and 68.16 fg/troph
same,%Hb,[1]; 2.5x,5.1788% and 7.1992% and 6.5284% and 7.3663%
same,%Heme,[1]; 2.5x,6.6682% and 5.2565% and 5.5507% and 5.3264%
same,%Hemozoin,[1]; 2.5x,88.1530% and 87.5443% and 87.9209% and 87.3073%
same,Hb Fe (fg/troph),[1]; 2.5x,2.9541 fg/troph and 4.0082 fg/troph and 4.1259 fg/troph and 4.4913 fg/troph
same,Heme Fe (fg/troph),[1]; 2.5x,3.8037 fg/troph and 2.9266 fg/troph and 3.5080 fg/troph and 3.2476 fg/troph
same,Hemozoin Fe (fg/troph),[1]; 2.5x,50.2849 fg/troph and 48.7406 fg/troph and 55.5658 fg/troph and 53.2328 fg/troph
same,Total Fe (fg/troph),[1]; 2.5x,57.04 fg/troph and 55.68 fg/troph and 63.20 fg/troph and 60.97 fg/troph
same,%Hb,[1]; 3x,3.4597% and 3.9960% and 5.9128% and 5.9841%
same,%Heme,[1]; 3x,6.5997% and 5.1160% and 5.1737% and 5.1489%
same,%Hemozoin,[1]; 3x,89.9406% and 90.8880% and 88.9135% and 88.8671%
same,Heme Fe (fg/troph),[1]; 3x,3.6368 fg/troph and 3.2102 fg/troph and 3.3952 fg/troph and 3.4079 fg/troph
same,Hemozoin Fe (fg/troph),[1]; 3x,49.5627 fg/troph and 57.0293 fg/troph and 58.3496 fg/troph and 58.8192 fg/troph
COc1cccc(Nc2ccnc3ccccc23)c1 [LDT-617],CC50 at 72 h,[2]; HepG2 cells,40.8 ± 12.2 µM
same,SI (CC50 HepG2 / IC50 3D7),HepG2 cells,23.1
same,CC50 at 72 h,[3]; COS-7 cells,51.2 ± 6.6 µM
same,SI (CC50 COS-7 / IC50 3D7),COS-7 cells,28.9
same,IC50,[4],1.8 ± 0.1 µM
same,IC50,[5],1.9 ± 0.2 µM
COc1ccc(Nc2ccnc3ccccc23)cc1OC [LDT-618],CC50 at 72 h,[2]; HepG2 cells,29.8 ± 9.7 µM
same,SI (CC50 HepG2 / IC50 3D7),HepG2 cells,16.8
same,CC50 at 72 h,[3]; COS-7 cells,> 100 µM
same,SI (CC50 COS-7 / IC50 3D7),COS-7 cells,> 56.5
same,IC50,[4],1.8 ± 0.1 µM
same,IC50,[5],1.9 ± 0.2 µM
COc1cc(Nc2ccnc3ccc(Br)cc23)cc(OC)c1OC [LDT-619],CC50 at 72 h,[2]; read-out: CC50 HepG2,0.3 ± 0.04 µM
same,SI (CC50 HepG2 / IC50 3D7),HepG2 cells,0.1
same,CC50 at 72 h,[3]; read-out: CC50 COS-7,3.3 ± 0.3 µM
same,SI (CC50 COS-7 / IC50 3D7),COS-7 cells,0.7
same,IC50,[4],> 5 µM
same,IC50,[5],> 5 µM
CCOc1cc2nccc(Nc3cc(OC)c(OC)c(OC)c3)c2cc1OCC [LDT-620],CC50 at 72 h,[2]; HepG2 cells,1.6 ± 0.1 µM
same,SI (CC50 HepG2 / IC50 3D7),HepG2 cells,3.8
same,CC50 at 72 h,[3]; COS-7 cells,2.6 ± 0.3 µM
same,SI (CC50 COS-7 / IC50 3D7),COS-7 cells,6.3
same,IC50,[4],0.4 ± 0.05 µM
same,IC50,[5],0.5 ± 0.1 µM
COc1cc(Nc2ccnc3ccccc23)cc(OC)c1 [LDT-621],CC50 at 72 h,[2]; HepG2 cells,0.5 ± 0.1 µM
same,SI (CC50 HepG2 / IC50 3D7),HepG2 cells,0.2
same,CC50 at 72 h,[3]; COS-7 cells,6.5 ± 4.2 µM
same,SI (CC50 COS-7 / IC50 3D7),COS-7 cells,2.8
same,IC50,[4],2.2 ± 0.1 µM
same,IC50,[5],2 ± 0.3 µM
COc1ccc2c(Nc3ccccc3)ccnc2c1 [LDT-622],CC50 at 72 h,[2]; HepG2 cells,3 ± 0.9 µM
same,SI (CC50 HepG2 / IC50 3D7),HepG2 cells,13.7
same,CC50 at 72 h,[3]; COS-7 cells,3.8 ± 0.7 µM
same,SI (CC50 COS-7 / IC50 3D7),COS-7 cells,17.5
same,IC50,[4],0.2 ± 0.02 µM
same,IC50,[5],0.4 ± 0.06 µM
COc1cc(Nc2ccnc3cc(Br)ccc23)cc(OC)c1OC [LDT-624],CC50 at 72 h,[2]; HepG2 cells,32.5 ± 7.5 µM
same,SI (CC50 HepG2 / IC50 3D7),HepG2 cells,20.6
same,CC50 at 72 h,[3]; COS-7 cells,41.3 ± 17.2 µM
same,SI (CC50 COS-7 / IC50 3D7),COS-7 cells,26.1
same,IC50,[4],1.6 ± 0.7 µM
same,IC50,[5],1 ± 0.2 µM
COc1ccc(Nc2ccnc3ccc(F)cc23)cc1OC [LDT-625],CC50 at 72 h,[2]; HepG2 cells,33.3 ± 3.8 µM
same,SI (CC50 HepG2 / IC50 3D7),HepG2 cells,10.3
same,CC50 at 72 h,[3]; COS-7 cells,20.4 ± 1.3 µM
same,SI (CC50 COS-7 / IC50 3D7),COS-7 cells,6.2
same,IC50,[4],3.2 ± 0.8 µM
same,IC50,[5],2.9 ± 0.5 µM
COc1ccc(Nc2ccnc3c(F)cc(F)cc23)cc1OC [LDT-626],CC50 at 72 h,[2]; HepG2 cells,53.8 ± 10.8 µM
same,SI (CC50 HepG2 / IC50 3D7),HepG2 cells,9.8
same,CC50 at 72 h,[3]; COS-7 cells,50.9 ± 22.2 µM
same,SI (CC50 COS-7 / IC50 3D7),COS-7 cells,9.3
same,IC50,[4],5.5 ± 0.5 µM
same,IC50,[5],3.2 ± 0.4 µM
COc1cc(NC(C)CCCN)c2ncccc2c1 (centres unmarked) [Primaquine],"Infection, Mean",[6]; 1 uM,136.53
same,"Infection, Mean",[6]; 10 uM,51.51
same,"Confluency, Mean",Huh-7 cells; 1 uM,110.92
same,"Confluency, Mean",Huh-7 cells; 10 uM,113.36

# Source: paper PMC11521309, “A novel 4-aminoquinoline chemotype with multistage antimalarial activity and lack of cross-resistance with PfCRT and PfMDR1 mutants” (PLOS Pathogens, 2024)
